Measured values as given in ChEMBL document CHEMBL4007454 (J Med Chem, 2017).
Converted amounts (≈) assume the structure as drawn.

Columns and labels:
[1] = molecular target: T1, Leucine-rich repeat serine/threonine-protein kinase 2 (Homo sapiens, UniProt Q5S007, G2019S); experiment: Inhibition of recombinant human GST-tagged LRRK2 (970 to 2527 residues) G2019S mutant expressed in baculovirus using fluorescein-ERM as substrate preincubated for 30 mins followed by substrate addition measured after 1 hr by TR-FRET assay
T1 sequence (Q5S007 whole entry G2019S, the tested form may be a part): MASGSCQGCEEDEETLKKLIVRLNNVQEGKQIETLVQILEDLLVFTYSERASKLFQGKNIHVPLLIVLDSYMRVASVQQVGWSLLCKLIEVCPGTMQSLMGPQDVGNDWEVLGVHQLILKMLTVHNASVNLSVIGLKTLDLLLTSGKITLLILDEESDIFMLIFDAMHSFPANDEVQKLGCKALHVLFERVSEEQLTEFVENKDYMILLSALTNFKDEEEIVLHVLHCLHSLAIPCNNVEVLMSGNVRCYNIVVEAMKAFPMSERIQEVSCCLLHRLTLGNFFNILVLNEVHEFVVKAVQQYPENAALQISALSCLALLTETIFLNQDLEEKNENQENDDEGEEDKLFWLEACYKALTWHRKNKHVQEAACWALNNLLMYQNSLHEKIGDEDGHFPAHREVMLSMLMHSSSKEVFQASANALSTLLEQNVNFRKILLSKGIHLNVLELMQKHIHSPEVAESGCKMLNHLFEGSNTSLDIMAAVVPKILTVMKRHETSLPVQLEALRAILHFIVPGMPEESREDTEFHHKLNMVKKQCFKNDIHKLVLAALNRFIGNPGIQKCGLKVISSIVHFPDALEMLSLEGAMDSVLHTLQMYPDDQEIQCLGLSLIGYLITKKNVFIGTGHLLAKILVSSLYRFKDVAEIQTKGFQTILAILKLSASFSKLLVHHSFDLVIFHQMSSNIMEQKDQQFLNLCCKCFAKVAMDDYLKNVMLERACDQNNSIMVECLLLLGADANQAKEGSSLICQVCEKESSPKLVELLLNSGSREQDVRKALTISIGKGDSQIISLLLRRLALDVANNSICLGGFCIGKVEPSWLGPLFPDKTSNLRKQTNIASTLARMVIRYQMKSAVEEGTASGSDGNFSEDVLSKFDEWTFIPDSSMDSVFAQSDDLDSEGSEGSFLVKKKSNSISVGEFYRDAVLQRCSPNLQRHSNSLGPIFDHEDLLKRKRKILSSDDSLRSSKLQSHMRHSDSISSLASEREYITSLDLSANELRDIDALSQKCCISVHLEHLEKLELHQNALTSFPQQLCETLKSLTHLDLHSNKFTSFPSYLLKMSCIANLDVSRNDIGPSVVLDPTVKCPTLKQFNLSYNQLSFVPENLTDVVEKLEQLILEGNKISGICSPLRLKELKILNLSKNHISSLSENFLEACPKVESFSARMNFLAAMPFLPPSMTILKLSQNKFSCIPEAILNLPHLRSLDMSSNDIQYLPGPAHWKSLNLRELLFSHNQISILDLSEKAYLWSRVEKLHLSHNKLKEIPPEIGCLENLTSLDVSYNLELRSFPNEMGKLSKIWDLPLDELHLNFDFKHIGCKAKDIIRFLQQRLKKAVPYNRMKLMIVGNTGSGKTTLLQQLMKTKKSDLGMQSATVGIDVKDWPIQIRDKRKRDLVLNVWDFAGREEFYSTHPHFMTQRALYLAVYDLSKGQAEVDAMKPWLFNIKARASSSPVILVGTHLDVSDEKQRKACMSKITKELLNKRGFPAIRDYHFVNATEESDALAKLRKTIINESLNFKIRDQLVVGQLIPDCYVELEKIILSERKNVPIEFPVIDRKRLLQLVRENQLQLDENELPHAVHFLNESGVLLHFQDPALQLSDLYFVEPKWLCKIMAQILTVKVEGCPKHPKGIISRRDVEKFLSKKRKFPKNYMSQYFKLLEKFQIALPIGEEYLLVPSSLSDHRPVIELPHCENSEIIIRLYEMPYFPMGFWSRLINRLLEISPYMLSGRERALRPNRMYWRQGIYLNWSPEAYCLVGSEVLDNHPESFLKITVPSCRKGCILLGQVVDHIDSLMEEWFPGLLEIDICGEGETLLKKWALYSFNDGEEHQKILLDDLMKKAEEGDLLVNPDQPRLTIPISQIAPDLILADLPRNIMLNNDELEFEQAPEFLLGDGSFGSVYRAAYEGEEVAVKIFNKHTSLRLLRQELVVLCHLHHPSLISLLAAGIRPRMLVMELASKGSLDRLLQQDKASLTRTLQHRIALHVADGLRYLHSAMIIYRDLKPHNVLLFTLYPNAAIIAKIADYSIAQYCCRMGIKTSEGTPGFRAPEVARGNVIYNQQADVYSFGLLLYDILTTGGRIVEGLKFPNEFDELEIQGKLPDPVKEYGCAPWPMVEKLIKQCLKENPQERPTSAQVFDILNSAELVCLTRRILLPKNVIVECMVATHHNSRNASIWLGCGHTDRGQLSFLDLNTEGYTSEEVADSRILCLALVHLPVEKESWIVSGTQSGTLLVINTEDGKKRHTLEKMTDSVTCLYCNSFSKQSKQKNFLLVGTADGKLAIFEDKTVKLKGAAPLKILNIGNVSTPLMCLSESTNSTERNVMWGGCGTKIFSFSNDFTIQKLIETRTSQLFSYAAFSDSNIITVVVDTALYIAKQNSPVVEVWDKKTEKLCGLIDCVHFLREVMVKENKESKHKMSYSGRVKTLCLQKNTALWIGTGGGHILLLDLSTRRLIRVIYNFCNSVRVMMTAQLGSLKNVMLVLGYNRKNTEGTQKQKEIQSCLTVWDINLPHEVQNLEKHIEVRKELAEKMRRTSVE

[2] = Efflux ratio of permeability […] in pig LLC-PK1 cells expressing human MDR1; assay type: ADME, cell-based, Sus scrofa
[3] = Efflux ratio of permeability […] in pig LLC-PK1 cells expressing rat MDR1; assay type: ADME, cell-based, Sus scrofa
MDR1 (human) = experiment: Apparent permeability in pig LLC-PK1 cells expressing human MDR1; assay type: ADME, cell-based, Sus scrofa
[4] = Intrinsic clearance in human hepatocytes assessed per million cells at 1 uM after 180 mins by LC-MS/MS analysis; assay type: ADME, cell-based, Hepatocyte; conditions: read-out: CLH
[5] = Intrinsic clearance in rat hepatocytes assessed per million cells at 1 uM after 180 mins by LC-MS/MS analysis; assay type: ADME, cell-based, Hepatocyte; conditions: read-out: CLH
[6] = molecular target: T1, Leucine-rich repeat serine/threonine-protein kinase 2; experiment: Inhibition of recombinant human GST-tagged LRRK2 (970 to 2527 residues) G2019S mutant expressed in baculovirus using fluorescein-ERM as substrate preincubated for 30 mins followed by substrate addition measured after 1 hr in presence of 5 mM ATP by TR-FRET assay
[7] = molecular target: T1, Leucine-rich repeat serine/threonine-protein kinase 2; experiment: Inhibition LRRK2 G2019S mutant Ser935 phosphorylation in human SH-SY5Y cells after 90 mins by Western blot analysis; assay type: cell-based
[8] = molecular target: T2, Dual specificity protein kinase TTK (Homo sapiens) (UniProt P33981); experiment: Inhibition of recombinant human full length GST-tagged TTK expressed in baculovirus; conditions: concentration not given here
T2 sequence (whole entry): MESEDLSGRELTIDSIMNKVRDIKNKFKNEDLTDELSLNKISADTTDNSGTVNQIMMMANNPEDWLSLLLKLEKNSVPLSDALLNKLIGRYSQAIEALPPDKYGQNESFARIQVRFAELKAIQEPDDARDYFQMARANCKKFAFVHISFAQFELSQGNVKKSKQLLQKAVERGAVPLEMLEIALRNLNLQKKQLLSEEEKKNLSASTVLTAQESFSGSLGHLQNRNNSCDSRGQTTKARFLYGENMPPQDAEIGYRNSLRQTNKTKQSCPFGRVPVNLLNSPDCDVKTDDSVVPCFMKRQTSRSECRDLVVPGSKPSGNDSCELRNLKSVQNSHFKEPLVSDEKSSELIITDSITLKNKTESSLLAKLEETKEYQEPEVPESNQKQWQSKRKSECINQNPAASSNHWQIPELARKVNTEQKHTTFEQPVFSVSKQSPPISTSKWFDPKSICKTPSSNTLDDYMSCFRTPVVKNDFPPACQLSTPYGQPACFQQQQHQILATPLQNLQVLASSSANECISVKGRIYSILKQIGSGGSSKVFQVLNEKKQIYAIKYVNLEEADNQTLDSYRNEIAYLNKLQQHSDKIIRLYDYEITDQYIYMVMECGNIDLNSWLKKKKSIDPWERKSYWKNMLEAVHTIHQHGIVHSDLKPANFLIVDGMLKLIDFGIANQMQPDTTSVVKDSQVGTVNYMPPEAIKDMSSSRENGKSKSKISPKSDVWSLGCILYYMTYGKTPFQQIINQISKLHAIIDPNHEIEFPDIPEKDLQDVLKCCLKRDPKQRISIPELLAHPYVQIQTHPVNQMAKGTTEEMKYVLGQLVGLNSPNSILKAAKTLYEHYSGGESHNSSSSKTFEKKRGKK

[9] = molecular target: Mitogen-activated protein kinase 1 (Homo sapiens) (UniProt P28482); experiment: Inhibition of recombinant human full length GST-tagged ERK2 expressed in Escherichia coli at 1 uM
Sequence of Mitogen-activated protein kinase 1 (Homo sapiens) (P28482 whole entry): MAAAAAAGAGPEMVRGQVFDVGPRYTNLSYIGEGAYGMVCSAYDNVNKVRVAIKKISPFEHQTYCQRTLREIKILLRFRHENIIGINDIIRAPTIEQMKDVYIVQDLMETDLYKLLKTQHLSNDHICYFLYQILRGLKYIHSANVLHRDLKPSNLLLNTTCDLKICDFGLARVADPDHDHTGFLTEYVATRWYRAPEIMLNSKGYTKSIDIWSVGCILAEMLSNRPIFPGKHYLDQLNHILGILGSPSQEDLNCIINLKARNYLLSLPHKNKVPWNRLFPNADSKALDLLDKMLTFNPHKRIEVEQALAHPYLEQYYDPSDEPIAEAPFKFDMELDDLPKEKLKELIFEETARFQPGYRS

[10] = AUC (0 to 8 hrs) in Han-Wistar rat at 2 mg/kg, iv measured after 2 to 480 mins by LC-MS/MS analysis; assay type: ADME, organism-based; design: time < 8 hr, dose 2 mg/kg, route intravenous; conditions: in vivo
[11] = Half life in Han-Wistar rat at 2 mg/kg, iv measured after 2 to 480 mins by LC-MS/MS analysis; assay type: ADME, organism-based; conditions: in vivo
Cerebrospinal fluid = experiment: Drug level in rat Cerebrospinal fluid at 5 mg/kg, ip; assay type: ADME, organism-based; conditions: in vivo, read-out: Drug uptake
Plasma = experiment: Unbound plasma concentration in rat at 5 mg/kg, ip; assay type: ADME, organism-based; conditions: in vivo
[12] = molecular target: Leucine-rich repeat serine/threonine-protein kinase 2 (Homo sapiens, UniProt Q5S007); experiment: Inhibition of wild type human recombinant LRRK2 expressed in baculovirus using fluorescein-ERM as substrate preincubated for 30 mins followed by substrate addition measured after 1 hr by TR-FRET assay
Sequence of Leucine-rich repeat serine/threonine-protein kinase 2 (Homo sapiens, UniProt Q5S007) (Q5S007 whole entry): as the sequence (Q5S007 whole entry G2019S, the tested form may be a part) above, with S2019G counted along it

[13] = Initial concentration in Han-Wistar rat at 2 mg/kg, iv measured after 2 to 480 mins by LC-MS/MS analysis; assay type: ADME, organism-based; conditions: in vivo
[14] = MRT in Han-Wistar rat at 2 mg/kg, iv measured after 2 to 480 mins by LC-MS/MS analysis; assay type: ADME, organism-based; conditions: in vivo
[15] = Clearance in Han-Wistar rat at 2 mg/kg, iv measured after 2 to 480 mins by LC-MS/MS analysis; assay type: ADME, organism-based; conditions: in vivo
[16] = AUC (0 to 8 hrs) in Han-Wistar rat at 10 mg/kg, po measured after 15 to 480 mins by LC-MS/MS analysis; assay type: ADME, organism-based; design: dose 10 mg/kg, time < 8 hr, route oral; conditions: in vivo
[17] = Cmax in Han-Wistar rat at 10 mg/kg, po measured after 15 to 480 mins by LC-MS/MS analysis; assay type: ADME, organism-based; conditions: in vivo, read-out: C0
[18] = Tmax in Han-Wistar rat at 10 mg/kg, po measured after 15 to 480 mins by LC-MS/MS analysis; assay type: ADME, organism-based; conditions: in vivo
[19] = MRT in Han-Wistar rat at 10 mg/kg, po measured after 15 to 480 mins by LC-MS/MS analysis; assay type: ADME, organism-based; conditions: in vivo
[20] = Oral bioavailability in Han-Wistar rat at 10 mg/kg, measured after 15 to 480 mins by LC-MS/MS analysis; assay type: ADME, organism-based; conditions: in vivo
[21] = Fraction unbound in rat plasma at 10 uM after 4 hrs by rapid equilibrium dialysis method; assay type: ADME, cell-free
Cytochrome P450 2D6 = Cytochrome P450 2D6 (Homo sapiens, UniProt P10635); experiment: Inhibition of human CYP2D6; assay type: ADME
Sequence of Cytochrome P450 2D6 (P10635 whole entry): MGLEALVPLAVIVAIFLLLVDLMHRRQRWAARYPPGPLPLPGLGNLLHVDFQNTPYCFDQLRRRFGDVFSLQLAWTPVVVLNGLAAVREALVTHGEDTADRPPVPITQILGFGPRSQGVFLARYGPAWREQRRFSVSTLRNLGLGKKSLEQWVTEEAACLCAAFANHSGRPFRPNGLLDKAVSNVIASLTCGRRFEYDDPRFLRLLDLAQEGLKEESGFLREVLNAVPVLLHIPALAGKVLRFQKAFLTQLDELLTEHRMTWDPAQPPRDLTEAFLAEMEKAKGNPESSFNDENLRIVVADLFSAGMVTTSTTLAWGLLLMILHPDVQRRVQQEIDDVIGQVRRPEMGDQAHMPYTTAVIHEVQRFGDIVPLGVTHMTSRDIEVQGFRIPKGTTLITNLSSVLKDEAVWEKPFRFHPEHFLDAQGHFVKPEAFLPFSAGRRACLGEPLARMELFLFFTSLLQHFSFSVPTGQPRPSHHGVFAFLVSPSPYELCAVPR

Cytochrome P450 2C9 = Cytochrome P450 2C9 (Homo sapiens, UniProt P11712); experiment: Inhibition of human CYP2C9; assay type: ADME
Sequence of Cytochrome P450 2C9 (P11712 whole entry): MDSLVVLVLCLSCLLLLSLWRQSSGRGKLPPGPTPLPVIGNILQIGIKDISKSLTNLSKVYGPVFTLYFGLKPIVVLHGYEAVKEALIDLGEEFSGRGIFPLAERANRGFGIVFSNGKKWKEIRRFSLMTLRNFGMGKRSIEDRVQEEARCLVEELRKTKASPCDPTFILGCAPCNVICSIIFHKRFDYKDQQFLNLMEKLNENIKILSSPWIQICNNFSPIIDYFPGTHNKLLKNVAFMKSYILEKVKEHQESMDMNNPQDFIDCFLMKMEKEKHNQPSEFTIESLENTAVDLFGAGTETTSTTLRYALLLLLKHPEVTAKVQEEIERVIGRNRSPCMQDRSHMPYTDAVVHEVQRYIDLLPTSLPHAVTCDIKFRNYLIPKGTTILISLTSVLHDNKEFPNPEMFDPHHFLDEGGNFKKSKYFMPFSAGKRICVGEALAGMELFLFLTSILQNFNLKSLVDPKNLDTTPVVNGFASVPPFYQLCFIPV

Cytochrome P450 3A4 [22] = molecular target: T3, Cytochrome P450 3A4 (Homo sapiens, UniProt P08684); experiment: Inhibition of human CYP3A4; assay type: ADME
T3 sequence (P08684 whole entry): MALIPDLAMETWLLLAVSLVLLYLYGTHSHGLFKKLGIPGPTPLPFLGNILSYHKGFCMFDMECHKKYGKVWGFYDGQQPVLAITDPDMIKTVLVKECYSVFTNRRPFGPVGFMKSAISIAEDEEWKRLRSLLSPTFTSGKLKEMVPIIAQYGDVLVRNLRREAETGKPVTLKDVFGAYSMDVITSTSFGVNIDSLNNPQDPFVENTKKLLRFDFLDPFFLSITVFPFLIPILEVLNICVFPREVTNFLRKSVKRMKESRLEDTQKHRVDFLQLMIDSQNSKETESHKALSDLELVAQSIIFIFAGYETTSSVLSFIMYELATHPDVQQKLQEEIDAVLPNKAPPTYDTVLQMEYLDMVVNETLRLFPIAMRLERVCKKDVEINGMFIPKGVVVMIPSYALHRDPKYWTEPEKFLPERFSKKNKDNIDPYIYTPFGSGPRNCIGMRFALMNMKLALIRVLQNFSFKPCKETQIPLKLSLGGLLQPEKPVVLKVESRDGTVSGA

Cytochrome P450 3A4 [23] = molecular target: T3, Cytochrome P450 3A4; experiment: Time dependent inhibition of human CYP3A4; assay type: ADME
Mus musculus [24] = experiment: In vivo inhibition of LRRK2 Ser935 phosphorylation in mouse brain cortex assessed as reduction in ratio of phosphorylated Ser935 to total LRRK2 protein at =>10 mg/kg, po administered 1 hr prior to euthanasia measured by Western blot analysis; assay type: functional
Rattus norvegicus [25] = experiment: In vivo inhibition of LRRK2 Ser935 phosphorylation in CD rat brain cortex assessed as reduction in ratio of phosphorylated Ser935 to total LRRK2 protein at => 30 mg/kg, po administered 1 hr post treatment by Western blot analysis; assay type: functional
Rattus norvegicus [26] = experiment: In vivo inhibition of LRRK2 Ser935 phosphorylation in CD rat brain cortex assessed as unbound brain concentration causing reduction in ratio of phosphorylated Ser935 to total LRRK2 protein at 1 to 100 mg/kg, po administered 1 hr post treatment by Western blot analysis; assay type: functional
Rattus norvegicus [27] = experiment: In vivo inhibition of LRRK2 Ser935 phosphorylation in CD rat brain cortex assessed as unbound plasma concentration causing reduction in ratio of phosphorylated Ser935 to total LRRK2 protein at 1 to 100 mg/kg, po administered 1 hr post treatment by Western blot analysis; assay type: functional
Mus musculus [28] = experiment: In vivo inhibition of LRRK2 Ser935 phosphorylation in mouse brain assessed as unbound brain concentration causing reduction in ratio of phosphorylated Ser935 to total LRRK2 protein at 1 to 100 mg/kg, po administered 1 hr post treatment by Western blot analysis; assay type: functional, organism-based
Mus musculus [29] = experiment: In vivo inhibition of LRRK2 Ser935 phosphorylation in mouse brain assessed as unbound plasma concentration causing reduction in ratio of phosphorylated Ser935 to total LRRK2 protein at 1 to 100 mg/kg, po administered 1 hr post treatment by Western blot analysis; assay type: functional, organism-based
[30] = Equilibrium solubility in Water after 24 hrs by HPLC method; assay type: physicochemical
[31] = Equilibrium solubility in simulated gastric fluid after 24 hrs by HPLC method; assay type: physicochemical
[32] = Equilibrium solubility in fasted state simulated intestinal fluid after 24 hrs by HPLC method; assay type: physicochemical
[33] = Equilibrium solubility in pH 6.5 Phosphate buffer after 24 hrs by HPLC method; assay type: physicochemical
[34] = Equilibrium solubility in fed state simulated intestinal fluid after 24 hrs by HPLC method; assay type: physicochemical
[35] = Equilibrium solubility in pH 5 acetate buffer after 24 hrs by HPLC method; assay type: physicochemical

C[C@@H]1CN(c2cc(-c3n[nH]c4ccc(OC5(C)CC5)cc34)ncn2)CCO1
IC50 [1]: 2 nM | Ratio [2]: 0.3 | Ratio [3]: 0.4 | Papp (MDR1 (human)): 28 ×10⁻⁶ cm/s | hepatocyte CLint at 1 µM [4]: 7 µL/min/1e6 cells | hepatocyte CLint at 1 µM [5]: 15 µL/min/1e6 cells | IC50 [6]: 13 nM | IC50 [7]: 5 nM

CC(C)Oc1ccc2[nH]nc(-c3ccnc(N4CCOCC4)c3)c2c1
IC50 [1]: 0.7 nM | Ratio [2]: 0.5 | Ratio [3]: 0.7 | Papp (MDR1 (human)): 30 ×10⁻⁶ cm/s | hepatocyte CLint at 1 µM [4]: 22 µL/min/1e6 cells | hepatocyte CLint at 1 µM [5]: 49 µL/min/1e6 cells | inhibition [8]: 91% | inhibition [9]: 41% | IC50 [7]: 43 nM | AUC(0-t) at 8 h [10]: 1 µM·h | half-life [11]: 1 h

CN(c1cccc(S(C)(=O)=O)c1)c1ccc2[nH]nc(-c3ccncc3)c2c1
concentration (Cerebrospinal fluid): 36 nM | Cp(f) (Plasma): 42 nM | IC50 [12]: 44 nM

C[C@@H]1CN(c2cc(-c3n[nH]c4ccc(OC5(C)CC5)cc34)ncn2)C[C@H](C)O1 [MLi-2]
hepatocyte CLint at 1 µM [4]: 8 µL/min/1e6 cells | hepatocyte CLint at 1 µM [5]: 15 µL/min/1e6 cells | AUC(0-t) at 8 h [10]: 0.66 µM·h | C0 [13]: 1170 nM | half-life [11]: 1.8 h | MRT [14]: 1.7 h | clearance [15]: 153 mL/min/kg | AUC(0-t) at 8 h [16]: 1.3 µM·h | Cmax [17]: 480 nM | Tmax [18]: 1.3 h | MRT [19]: 4 h | bioavailability [20]: 39% | fraction unbound at 4 h, 10 µM [21]: 0.012 | IC50 (Cytochrome P450 2D6): > 50000 nM | IC50 (Cytochrome P450 2C9): > 50000 nM | IC50 (Cytochrome P450 3A4 [22]): > 50000 nM | TDI (Cytochrome P450 3A4 [23]): Not Active | inhibition (INH) (Mus musculus [24]): >90% | inhibition (INH) (Rattus norvegicus [25]): >90% | fIC50 (Rattus norvegicus [26]): 0.18 nM | fIC50 (Rattus norvegicus [27]): 0.2 nM | IC50 (Mus musculus [28]): 0.8 nM | IC50 (Mus musculus [29]): 1.1 nM | solubility thermodynamic at 24 h [30]: 14 to 38 µg/mL (≈ 36.9 to 100 µM) | solubility thermodynamic at 24 h [31]: 14 to 38 µg/mL (≈ 36.9 to 100 µM) | solubility thermodynamic at 24 h [32]: 14 to 38 µg/mL (≈ 36.9 to 100 µM) | solubility thermodynamic at 24 h [33]: 14 to 38 µg/mL (≈ 36.9 to 100 µM) | solubility thermodynamic at 24 h [34]: 14 to 38 µg/mL (≈ 36.9 to 100 µM) | solubility thermodynamic at 24 h [35]: 14 to 38 µg/mL (≈ 36.9 to 100 µM)

CC(C)Oc1ccc2[nH]nc(-c3ccnc(N4C[C@@H](F)[C@H](F)C4)c3)c2c1
IC50 [1]: 6.6 nM | Ratio [2]: 0.4 | Ratio [3]: 0.7 | Papp (MDR1 (human)): 31 ×10⁻⁶ cm/s | hepatocyte CLint at 1 µM [4]: 25 µL/min/1e6 cells | hepatocyte CLint at 1 µM [5]: 39 µL/min/1e6 cells | IC50 [6]: 128 nM | IC50 [7]: 341 nM

Nc1cc(-c2n[nH]c3ccc(Nc4ccccc4)cc23)ccn1
IC50 [12]: 728 nM

CC(C)Oc1ccc2[nH]nc(-c3ccnc(N4CCC(n5cnnc5)CC4)c3)c2c1
Ratio [2]: 40 | Ratio [3]: 41 | Papp (MDR1 (human)): 46 ×10⁻⁶ cm/s | hepatocyte CLint at 1 µM [4]: 2 µL/min/1e6 cells | hepatocyte CLint at 1 µM [5]: 19 µL/min/1e6 cells | IC50 [6]: 69 nM | IC50 [7]: 194 nM
